Reference: patent US20040110763A1, “Pyrazolopyridine compound and pharmaceutical use thereof” (priority 2000, published 2004)

Legend:
[1] = biological target: T1, human A1 receptor (Homo sapiens, UniProt P30542); test: Adenosine antagonistic activity, radioligand binding, A1 receptor; conditions: [3H]DPCPX 4.5 nM
T1 sequence (P30542 1-326): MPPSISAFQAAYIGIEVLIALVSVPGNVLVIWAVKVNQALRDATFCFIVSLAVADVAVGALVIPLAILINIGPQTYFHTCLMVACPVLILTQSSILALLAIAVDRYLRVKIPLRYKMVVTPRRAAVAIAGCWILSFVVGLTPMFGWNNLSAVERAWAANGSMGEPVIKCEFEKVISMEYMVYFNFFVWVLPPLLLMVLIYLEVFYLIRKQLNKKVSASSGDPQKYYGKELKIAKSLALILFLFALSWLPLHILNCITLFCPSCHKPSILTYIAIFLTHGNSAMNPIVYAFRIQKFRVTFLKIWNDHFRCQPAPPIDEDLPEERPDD
Description: (§1) Test 1: Adenosine Antagonistic Activity
(§2) The adenosine antagonistic activity [Ki(nM)] of the test compound was examined by radioligand binding techniques using 8-cyclopentyl-1,3-dipropylxanthine, [dipropyl-2,3-^3H(N)] ([^3H]DPCPX, 4.5 nM) for human A1 receptor and [^3H]CGS 21680 (20 nM) for human A2a receptor.

[2] = system: ddY mice; test: Anticatalepsy activity in mouse (haloperidol-induced catalepsy); type: in vivo; conditions: 3.2 mg/kg orally, ddY mice n=7; haloperidol 0.32 mg/kg i.p. 30 min after compound; measured 30 min after injection, bar test up to 30 sec
Description: Test 2: Anticatalepsy Activity in Mouse
The test compound (3.2 mg/kg) was administered orally with ddY mice (n=7). Then, haloperidol (0.32 mg/kg) was injected intraperitoneally 30 min. after the administration of the compound. Thirty min. after the injection, the cataleptic responses of mice were measured. The forelimbs of each mouse were placed on a 3 cm high, 3 mm wide horizontal bar, and the duration of cataleptic posture was measured for up to 30 sec.

[3] = biological target: human A2a receptor (Homo sapiens, UniProt P29274); test: Adenosine antagonistic activity, radioligand binding, A2a receptor; conditions: [3H]CGS 21680 20 nM
Description: as §1, §2

Sequence of human A2a receptor (P29274 whole entry): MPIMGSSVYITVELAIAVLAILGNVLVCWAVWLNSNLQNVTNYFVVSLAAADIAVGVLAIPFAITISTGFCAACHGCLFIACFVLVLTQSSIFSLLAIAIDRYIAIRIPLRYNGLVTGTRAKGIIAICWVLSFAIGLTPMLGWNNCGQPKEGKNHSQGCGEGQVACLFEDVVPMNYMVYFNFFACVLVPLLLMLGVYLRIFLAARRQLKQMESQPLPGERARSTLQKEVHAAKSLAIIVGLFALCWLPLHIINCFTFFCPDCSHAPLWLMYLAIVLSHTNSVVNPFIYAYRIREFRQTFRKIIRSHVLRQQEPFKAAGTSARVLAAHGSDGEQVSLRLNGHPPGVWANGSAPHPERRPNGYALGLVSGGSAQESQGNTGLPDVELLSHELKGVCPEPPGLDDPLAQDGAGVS

| Compound | Ki [1] | Manifestation rate of catalepsy (number of mouse) [2] | Ki [3] | melting point |
| --- | --- | --- | --- | --- |
| CC(C)n1nc(-c2c(-c3ccccc3)nn3ccc(Oc4ccccn4)cc23)ccc1=O [Example 31, 5-(2-pyridinyloxy)-3-(3-oxo-2-isopropyl-2,3-dihydropyridazin-6-yl)-2-phenylpyrazolo[1,5-a]pyridine] | 0.42 nM | 0/7 | 1.44 nM | 140.5 to 141.5 °C |
| COc1ccn2nc(-c3ccccc3)c(-c3ccc(=O)n(C(C)C)n3)c2c1 [Example 2, 5-Methoxy-3-(3-oxo-2-isopropyl-2,3-dihydropyridazin-6-yl)-2-phenylpyrazolo[1,5-a]pyridine] | 0.15 nM | 0/7 | 1.38 nM | 180.5 to 181.5 °C |
| CC(C)n1nc(-c2c(-c3ccccc3)nn3ccc(C(=O)N(C)C)cc23)ccc1=O [Example 72, N,N-dimethyl-3-(3-oxo-2-isopropyl-2,3-dihydropyridazin-6-yl)-2-phenylpyrazolo[1,5-a]pyridine-5-carboxamide] | 0.25 nM | 0/7 | 1.68 nM | – |
| CC(C)n1nc(-c2c(-c3ccccc3)nn3ccc(NC(=O)OC(C)(C)C)cc23)ccc1=O [Example 145, tert-butyl 3-(3-oxo-2-isopropyl-2,3-dihydropyridazin-6-yl)-2-phenylpyrazolo[1,5-a]pyridin-5-ylcarbamate] | 0.48 nM | 0/7 | 1.03 nM | 208 to 210 °C |
| CC(C)n1nc(-c2c(-c3ccccc3)nn3ccc(N4CCN(C)CC4)cc23)ccc1=O [Example 96, 5-(4-methyl-1-piperazinyl)-3-(3-oxo-2-isopropyl-2,3-dihydropyridazin-6-yl)-2-phenylpyrazolo[1,5-a]pyridine] | 0.24 nM | 0/7 | 1.28 nM | 170 to 171 °C |
| CC(C)n1nc(-c2c(-c3ccccc3)nn3ccc(C(=O)NC4CC4)cc23)ccc1=O [Example 139, N-cyclopropyl-3-(3-oxo-2-isopropyl-2,3-dihydropyridazin-6-yl)-2-phenylpyrazolo[1,5-a]pyridine-5-carboxamide] | – | – | – | 184 to 185 °C |
| COC(=O)c1ccn2nc(-c3ccccc3)c(-c3ccc(=O)n(C(C)C)n3)c2c1 [Example 69, methyl 3-(3-oxo-2-isopropyl-2,3-dihydropyridazin-6-yl)-2-phenylpyrazolo[1,5-a]pyridine-5-carboxylate] | – | – | – | 186 to 187 °C |
| CC(C)n1nc(-c2c(-c3ccccc3)nn3ccc(OCCC4CCCCC4)cc23)ccc1=O [Example 23, 5-(2-Cyclohexylethoxy)-3-(3-oxo-2-isopropyl-2,3-dihydropyridazin-6-yl)-2-phenylpyrazolo[1,5-a]pyridine] | – | – | – | 146 to 147 °C |
| CC(C)n1nc(-c2c(-c3ccccc3)nn3ccc(OCC(=O)NCCc4ccccn4)cc23)ccc1=O [Example 60, 2-{[3-(3-oxo-2-isopropyl-2,3-dihydropyridazin-6-yl)-2-phenylpyrazolo[1,5-a)pyridin-5-yl]oxy}-N-[2-(2-pyridinyl)-ethyl]acetamide] | – | – | – | 188 to 190 °C |
| CC(C)n1nc(-c2c(-c3ccccc3)nn3ccc(OCCN(C)C)cc23)ccc1=O [Example 4, 5-(2-Dimethylamino)ethoxy-3-(3-oxo-2-isopropyl-2,3-dihydropyridazin-6-yl)-2-phenylpyrazolo[1,5-a]pyridine] | 0.98 nM | 0/7 | 2.35 nM | 138 to 139 °C |
| CCN(CC)C(=O)COc1ccn2nc(-c3ccccc3)c(-c3ccc(=O)n(C(C)C)n3)c2c1 [Example 41, N,N-Diethyl-2-{[3-(3-oxo-2-isopropyl-2,3-dihydropyridazin-6-yl)-2-phenylpyrazolo[1,5-a]pyridin-5-yl]oxy}acetamide] | – | – | – | 125 to 126.5 °C |
| CC(C)n1nc(-c2c(-c3ccccc3)nn3ccc(OCCN4[C@H](C)COC[C@@H]4C)cc23)ccc1=O [Example 18, 5-[2-{(3R,5S)-3,5-Dimethyl-4-morpholinyl}ethoxy]-3-(3-oxo-2-isopropyl-2,3-dihydropyridazin-6-yl)-2-phenylpyrazolo[1,5-a]pyridine] | – | – | – | 145 to 146 °C |
| CC(C)n1nc(-c2c(-c3ccccc3)nn3ccc(O)cc23)ccc1=O [Example 3, 5-Hydroxy-3-(3-oxo-2-isopropyl-2,3-dihydropyridazin-6-yl)-2-phenylpyrazolo[1,5-a]pyridine] | 0.14 nM | – | 1.05 nM | > 250 °C |
| CC(C)n1nc(-c2c(-c3ccccc3)nn3ccc(C(=O)NCCN(C)C)cc23)ccc1=O [Example 76, N-[2-(Dimethylamino)ethyl]-3-(3-oxo-2-isopropyl-2,3-dihydropyridazin-6-yl)-2-phenylpyrazolo[1,5-a]pyridine-5-carboxamide] | – | – | – | 157 to 158 °C |
| CC(C)n1nc(-c2c(-c3ccccc3)nn3ccc(N4CCN(C(=O)OC(C)(C)C)CC4)cc23)ccc1=O [Example 104, tert-Butyl 4-[3-(3-oxo-2-isopropyl-2,3-dihydropyridazin-6-yl)-2-phenylpyrazolo[1,5-a]pyridin-5-yl]-1-piperazinecarboxylate] | – | – | – | 163 to 164 °C |
| CC(=O)COc1ccn2nc(-c3ccccc3)c(-c3ccc(=O)n(C(C)C)n3)c2c1 [Example 27, 5-(2-Oxopropoxy)-3-(3-oxo-2-isopropyl-2,3-dihydropyridazin-6-yl)-2-phenylpyrazolo[1,5-a]pyridine] | – | – | – | 172.5 to 173.5 °C |
| CC(C)n1nc(-c2c(-c3ccccc3)nn3ccc(OCCN4C[C@@H](C)O[C@@H](C)C4)cc23)ccc1=O [Example 24, 5-[2-{(2R,6S)-2,6-Dimethyl-4-morpholinyl}ethoxy]-3-(3-oxo-2-isopropyl-2,3-dihydropyridazin-6-yl)-2-phenylpyrazolo[1,5-a]pyridine] | – | – | – | 157.5 to 158 °C |
| CC(C)n1nc(-c2c(-c3ccccc3)nn3ccc(N4CCN(c5ccccn5)CC4)cc23)ccc1=O [Example 102, 5-[4-(2-Pyridinyl)-1-piperazinyl]-3-(3-oxo-2-isopropyl-2,3-dihydropyridazin-6-yl)-2-phenylpyrazolo[1,5-a]pyridine] | – | – | – | 221 to 222 °C |
| CC(C)n1nc(-c2c(-c3ccccc3)nn3cccc(O)c23)ccc1=O [Example 195, 4-Hydroxy-3-(3-oxo-2-isopropyl-2,3-dihydropyridazin-6-yl)-2-phenylpyrazolo[1,5-a]pyridine] | – | – | – | 229 to 230 °C |
| CC(C)n1nc(-c2c(-c3ccccc3)nn3ccc(N4CCN(Cc5ccccc5)CC4)cc23)ccc1=O [Example 105, 5-(4-Benzyl-1-piperazinyl)-3-(3-oxo-2-isopropyl-2,3-dihydropyridazin-6-yl)-2-phenylpyrazolo[1,5-a]pyridine] | – | – | – | 136 to 138 °C |
| CC(C)n1nc(-c2c(-c3ccccc3)nn3ccc(N4CCC(O)CC4)cc23)ccc1=O [Example 101, 5-(4-Hydroxy-1-piperidinyl)-3-(3-oxo-2-isopropyl-2,3-dihydropyridazin-6-yl)-2-phenylpyrazolo[1,5-a]pyridine] | – | – | – | 213 to 215 °C |
| CC(C)n1nc(-c2c(-c3ccccc3)nn3ccc(NC(=O)c4ccccc4)cc23)ccc1=O [Example 148, 5-Benzoylamino-3-(3-oxo-2-isopropyl-2,3-dihydropyridazin-6-yl)-2-phenylpyrazolo[1,5-a]pyridine] | – | – | – | 266 to 267 °C |
